Measurements taken from patent US20150327444A1, “PROCESS FOR THE OVERPRODUCTION OF SHIKIMIC ACID AND PHENOLIC ACIDS IN FRUIT AND VEGETABLE CROPS” (Instituto Tecnologico y de Estudios Superiores de Monterry, priority 2013, published 2015).

Key:
carrots (Daucus carota) [1] = experiment: Overproduction of SA and PC by wounding stress and sprayed glyphosate 482 g/L in carrot tissue (Example 6)
Method: (§1) The plant material used in this example comprised carrots (Daucus carota) obtained from a local supermarket (Monterrey, N. L., Mexico), which were washed and disinfected with chlorinated water in a concentration of 200 ppm, pH 6.5, in a ratio of 1:3 kg of plant material:liters of chlorinated water, for 10 min.
(§2) This stage was carried out by grating the carrot with a commercial vegetable grater. Stressed grated carrots having a diameter of 0.7 cm were obtained.
(§3) In this stage, the stressed grated plant tissue was treated by spraying (commercial sprayer) 100 mL of a concentrated solution of glyphosate (482 g/L).
Finally, the treated grated material was incubated at 25° C. for 24 hours at atmospheric pressure with a relative humidity of 65%, in total darkness, to determine the combined effect of wounding stress and glyphosate application on the accumulation of SA and PC.

carrots (Daucus carota) [2] = experiment: Effect of drying on SA and PC in wounding-stressed, glyphosate-sprayed carrot tissue (Example 7); details: for Increase in concentration in dehydrated glyphosated grated material stored for 24 hours: vs grated carrot prior to storage (0 hours)
Method: as §1, with “min. This stage was carried out by grating the carrot with a commercial vegetable grater.” for “min.”

carrots (Daucus carota) [3] = experiment: Effect of grinding on SA and PC in wounding-stressed, glyphosate-sprayed carrot tissue (Example 8)
Method: as §1, §2, §3
The treated grated material was incubated at 25° C. […] at atmospheric pressure with a relative humidity of 65%, in total darkness, to determine the combined effect of wounding stress and glyphosate application on the accumulation of SA and PC.

carrots (Daucus carota) [4] = experiment: Effect of wounding stress on accumulation of SA in grated carrot during storage (Example 1); details: vs grated carrot prior to storage (0 hours); 25° C., no glyphosate
Method: as §1
Stage a) The previously washed and disinfected carrots were subjected to post-harvest abiotic stress.
as §2
Stage b) Incubation of the grated carrot stressed in a) to encourage the production and accumulation of SA and PC. […]
The SA was extracted from the horticultural crop using two different processes based on the method of detection and quantification which was to be used (spectrophotometry or chromatography). […]
The SA extracts were analyzed following a method reported by Zelaya, I. A., Anderson, J. A., Owen, M. D. and Landes, R. D. Evaluation of spectrophotometric and HPLC methods for shikimic acid determination in plants: models in glyphosate-resistant and susceptible crops. […] The SA oxidized through the effect of the reaction was detected at 382 nm using a microplates reader (Synergy HT, Bio-Tek Instruments Inc., Winooski, Vt., USA). A standard curve for SA was constructed (1-1000 μM) to quantify the compound. […]

carrots (Daucus carota) [5] = experiment: Effect of drying on accumulation of SA in wounding-stressed grated carrot (Example 2); details: vs grated carrot prior to storage (0 hours)
Method: as §1
(§4) This stage was carried out by grating the carrot with a commercial vegetable grater. Stressed grated carrots having a diameter of 0.7 cm were obtained. […]
(§5) The SA extracts were analyzed following a method reported by Zelaya, I. A., Anderson, J. A., Owen, M. D. and Landes, R. D. Evaluation of spectrophotometric and HPLC methods for shikimic acid determination in plants: models in glyphosate-resistant and susceptible crops. […] The SA oxidized through the effect of the reaction was detected at 382 nm using a microplates reader (Synergy HT, Bio-Tek Instruments Inc., Winooski, Vt., USA). A standard curve for SA was constructed (1-1000 μM) to quantify the compound. The SA concentration was expressed as mg per kg of carrots in dry base (DB). The moisture content in the samples was determined by the method of drying in a stove (AACC 44-15A).

carrots (Daucus carota) [6] = experiment: Effect of grinding on accumulation of SA in wounding-stressed grated carrot (Example 3); details: vs grated carrot prior to storage (0 hours)
Method: as §1, §4, §5

carrots (Daucus carota) [7] = experiment: Effect of method of application (submergence or spraying) of glyphosate solution on SA accumulation in grated carrot (Example 4); details: glyphosate 482 g/L, 24 hours at 25° C.
Excerpt: This difference is attributed to the removal of signal molecules which induce the response to the wounding as part of the submergence process. The (at least partial) removal of extracellular adenosine triphosphate (eATP, produced by the wounding stress effect) occurs in the submerged material, and this may be related to lesser generation of reactive oxygen species (ROS), thus reducing the yield of SA in comparison with application by spraying. Abiotic wounding stress activates the metabolic pathways involved in the production of phenolic compounds while the application of glyphosate makes it possible to block the flow of SA to the production of other compounds, thus bringing about an accumulation of SA in the horticultural crop. Thus the wounded carrots have been treated with a solution of glyphosate (0-482 g/L) using one of the two different methods of application (submergence and spraying), the spraying method being preferred because of its better yields, and stored for 24 hours to determine the combined effect of wounding stress and glyphosate application on the accumulation of SA and PC. In the first (submerged) method of application the grated material was submerged in a ratio of 1:2 to 1:4 (kg of plant material:liters of glyphosate solution), in such a way that said material was wholly submerged in the glyphosate solution. […]

carrots (Daucus carota) [8] = experiment: HPLC-PDA quantification of SA and individual phenolic compounds in grated carrot sprayed with glyphosate at different concentrations (Example 5); details: after 24 hours' storage; estimated from HPLC-PDA
[9] = vs grated carrot before storage (0 hours)
[10] = sprayed 482 g/L glyphosate, vs control samples (0 hours)

SMILES | Increase in concentration on spraying a concentrated solution of glyphosate onto carrot tissue stressed by wounding (carrots (Daucus carota) [1]) | Increase in content in the 482 g/L glyphosate treatment (carrots (Daucus carota) [1]; vs control samples at 24 hours) [%] | Increase in content in the 482 g/L glyphosate treatment (carrots (Daucus carota) [2]; vs control samples at 24 hours) [%] | Increase in concentration in dehydrated glyphosated grated material stored for 24 hours (carrots (Daucus carota) [2]) [%] | Increase in content in the 482 g/L glyphosate treatment (carrots (Daucus carota) [3]; vs control samples at 24 hours) [%] | Increase in concentration in dehydrated glyphosated grated material stored for 24 hours (carrots (Daucus carota) [3]; [9]) [%] | Increase in concentration in grated carrot stored for 24 hours (carrots (Daucus carota) [4]) [%] | Increase in concentration in dehydrated nutraceutical grated material stored for 24 hours (carrots (Daucus carota) [5]; after drying) [%] | Increase in concentration in grated carrot stored for 24 hours (carrots (Daucus carota) [5]; no glyphosate) [%] | Increase in concentration in nutraceutical powder stored for 24 hours (carrots (Daucus carota) [6]; after drying and grinding) [%] | Increase in concentration in grated carrot stored for 24 hours (carrots (Daucus carota) [6]; no glyphosate) [%] | Increase in accumulation, grated carrot sprayed with glyphosate vs submerged samples (carrots (Daucus carota) [7]) | Increase in concentration in grated carrot not sprayed with glyphosate (carrots (Daucus carota) [8]) [%] | Increase in concentration after 24 hours of storage (carrots (Daucus carota) [1]; [10]) [%] | Increase in concentration after 24 hours' storage (carrots (Daucus carota) [2]; [10]) [%] | Increase in concentration after 24 hours of storage (carrots (Daucus carota) [3]; [10]) [%] | Increase in concentration in glyphosated powder stored for 24 hours (carrots (Daucus carota) [3]; [9]) [%]
O=C(/C=C/c1ccc(O)c(O)c1)O[C@@H]1C[C@](O)(C(=O)O)C[C@@H](O)[C@H]1O (single isomer, unassigned) [CA, chlorogenic acid] | > 5000% | ~1980 | ~1930 | ~1700 | ~1940 | ~11620 |  |  |  |  |  |  |  |  |  |  | 
O=C(O)C1=C[C@@H](O)[C@@H](O)[C@H](O)C1 (single isomer, unassigned) [SA, shikimic acid] | more than 1000% |  |  | ~1550 |  |  | ~50 | ~40 | ~45 | ~37 | ~48 | ~44% and ≈ 44% | ~77 | ~1735 | ~1766 | ~1720 | ~1470
